Measured values taken from patent US7449495B2, “Retinoid derivatives with antiangiogenic, antitumoral and proapoptotic activities” (Sigma-Tau Industrie Farmaceutiche Riunite S.p.A., priority 2001, dated 2008).

Legend:
[1] = test system: Human Promyelocytic Leukaemia HL-60 Cells; assay: Cyto-fluorometric cell cycle analysis, HL-60; format: cell-based; conditions: for APOPTOSIS / G0/G1 / G2 + M / S: 3 days; for G0/G1 / G2 + M / S: percentage of cell cycle phase
Protocol: To evaluate the effect of the compound according to the invention, on various phases of the cell cycle, cyto-fluorometric cell cycle analyses were performed.
HL60 or NB4 cells were seeded onto plates at a density of 150.000 cells/ml in RPMI 1640 medium containing 10% FCS, the test compound (ST 1926) was added, […], in the presence or absence of sub-optimal doses of ATRA (5-10 nM for NB4 and 0.5 μM for HL60) in the dark and placed in an incubator for 3 days without changing the culture medium.
On the third day of treatment 500.000 cells were sampled, centrifuged at 180×g for 5 minutes, washed twice in calcium and magnesium free PBS. The cells (1×10^6/ml of fixative) were fixed for at least 1 hour in a fixation mixture comprised of acetone/methanol 1:4 v/v maintained at −20° C. and 50% of calcium and magnesium free PBS; then the cells were centrifuged, washed in calcium and magnesium free PBS, and again centrifuged and washed. The cellular precipitate was incubated for 30 minutes in the dark at room temperature with 200 μl of […] (100 μg/ml) and 200 μl of RNAse (150 KU/mg).
The samples with filtered through nylon filters (60-80 μm diameter) and analysed by cyto-fluorimeter FACScan (Becton Dickinson), acquiring 20000 events/sample, at an excitation wavelength of 488 nm and emission wavelength of 620 nm. The analysis of the percentages of the cell cycle phases was performed using a dedicated software package, Modfit v. 2.0 (Becton Dickinson).

[2] = test system: M109 murine lung carcinoma cells; assay: Cytotoxicity in combination with TRAIL, M109; format: cell-based; conditions: M109, 72 hours, value >1 synergism (FIG. 2)
Protocol: FIG. 2 is a graph showing the interaction between ST1926 and TRAIL in M109 murine lung carcinoma cells at different concentrations of TRAIL.
A study of cytotoxicity of ST1926 in combination with TRAIL was performed in two different tumor cell lines such as M109 murine lung carcinoma and A2780/Dx multidrug-resistant human ovarian carcinoma. Cells were maintained in RPMI 1640 medium containing 10% FCS, 1% sodium pyruvate and 1% glutamine.
The cells were seeded in a volume of 250 μl in 96 well plates and incubated for 24 hours at 37° C. The following day, test compound ST 1926 [(2E)-3-[3′-(1-Adamantyl)-4′-hydroxy[1,1′-biphenyl]-4-yl]-2-propenoate/ic acid] or TRAIL were added at increasing concentrations, and the cells were incubated for a further 72 hours at 37° C. in a humidified atmosphere containing 5% CO2. On the 5th day, the supernatant was removed by upturning the plates. 200 μl of PBS and 50 μl of cold, 80% TCA were added. The plates were then left to incubate on ice for at least 1 hour. The TCA was removed by upturning; the plates were washed three times by immersion in distilled water and dried first on paper, then with a jet of hot air. […] The optical density was measured using a Multiskan spectrophotometer at 540 nm.
The interaction between ST1926 and TRAIL was determined by using the analysis of Drewinko et al. (Cancer Biochem. Biophys. 1: 187-195, 1976). […]

## O=C(O)/C=C/c1ccc(-c2ccc(O)c(C34CC5CC(CC(C5)C3)C4)c2)cc1 [ST1926, E-4-(3-(1-adamantyl)-4-hydroxyphenyl)cinnamic acid]
[1]; HL-60, 0.0025 μM
  APOPTOSIS: 8
  G0/G1: 54.9
  G2 + M: 11.7
  S: 33.4
[1]; HL-60, 0.005 μM
  APOPTOSIS: 14.0
  G0/G1: 53.4
  G2 + M: 12.2
  S: 34.4
[1]; HL-60, 0.01 μM
  APOPTOSIS: 12.5
  G0/G1: 52.0
  G2 + M: 12.6
  S: 35.4
[1]; HL-60, 0.05 μM
  APOPTOSIS: 13.0
  G0/G1: 45.0
  G2 + M: 13.0
  S: 42.0
[1]; HL-60, 0.1 μM
  APOPTOSIS: 27.5
  G0/G1: 39.9
  G2 + M: 13.3
  S: 46.8
[1]; HL-60, 0.5 μM
  APOPTOSIS: 82
[1]; HL-60, 1 μM
  APOPTOSIS: 86.5
[1]; HL-60, 0.5 and 1 μM, three days, cell cycle not measurable
  effect on HL-60 cells (in words): strong pro-apoptotic effect
[2]
  interaction between ST1926 and TRAIL (analysis of Drewinko et al.): synergic activity
